According to patent publication US8414958B2, “Implant and method for the manufacture thereof” (Thommen Medical AG, priority 2008, dated 2013):

Columns and labels:
[1] = Solubility in ethanol and ethanol/water mixtures; format: physicochemical
[2] = test system: tibias of rats; conditions: titanium implants in tibias, daily into the abdominal cavity; cited from earlier work
[3] = test system: bones of rats; conditions: calcium sulfate carrier disks, eight weeks, compared to control group; cited from earlier work
[4] = test system: parietal bone of rabbits; conditions: parietal bone fractures, collagen sponges; cited from earlier work
[5] = test system: jawbones of rats; conditions: jawbone fractures, gelatin sponges; cited from earlier work

Structure (SMILES) | ethanol content of the ethanol/water mixture in which the substance dissolves [1] [% ethanol] | solubility in water | bone density around the implant [2] | bone density [3] | bone mineral density [3] | mineral content of the bones [3] | formation of new bone [4] | bone density above that of the control group receiving no active ingredient [5] | formation of new bone in histological studies [5]
CCC(C)(C)C(=O)O[C@H]1C[C@@H](C)C=C2C=C[C@H](C)[C@H](CC[C@@H](O)C[C@@H](O)CC(=O)O)[C@H]21 [open-chain acid form of simvastatin] | 25 | water-soluble | – | – | – | – | – | – | –
CCC(C)(C)C(=O)O[C@H]1C[C@@H](C)C=C2C=CC(C)[C@H](CC[C@@H]3C[C@@H](O)CC(=O)O3)[C@H]21 (stereo in doubt) [simvastatin, [(1S,3R,7R,8S,8aR)-8-[2-[(2R,4R)-4-hydroxy-6-oxo-oxan-2-yl]ethyl]-3,7-dimethyl-1,2,3,7,8,8a-hexahydronaphthalen-1-yl] 2,2-dimethylbutanoate] | – | – | significant increase | significant increase | significant increase | significant increase | accelerated formation of new bone | 190-240% | enhanced formation of new bone was detectable
